This note sets out measurements from paper PMC5584945, “Evaluation of robenidine analog NCL195 as a novel broad-spectrum antibacterial agent” (PLoS ONE, 2017).

Data set [1] has as its system Enterococcus faecalis ATCC 29212. As to the kind of experiment: MIC, broth micro-dilution (CLSI), control strain. It counts as cell-based. As for the experimental part:
(§1) MICs for NCL812 and its analogs (serial two-fold dilutions commencing at 128 μg/ml) were determined (in duplicate) in round bottom 96-well microtitre trays (Sarstedt 82.1582.001), using the broth micro-dilution method recommended by the Clinical and Laboratory Standards Institute (CLSI). […] MIC50, MIC90 and MIC range for NCL812, NCL195 and NCL219 were calculated against each S. pneumoniae, S. aureus or VRE isolate. To assess the potential activity of NCL195 against Gram-negative bacteria, MICs against Acinetobacter spp, E. coli, K. pneumoniae, P. aeruginosa, Proteus spp and Neisseria meningitidis were performed in the presence or absence of 0.08 mM-20 mM EDTA in a standard checkerboard assay.

A further data set relates to S. aureus Xen29. As to the kind of experiment: Point of resistance assay (serial passage).
In the next data set the test system is S. pneumoniae D39. Put plainly: Time-dependent killing assay. The data set is classed as cell-based, Streptococcus pneumoniae. As for the experimental part: Time kill assays were performed (in duplicate) essentially as described previously with slight modifications. Briefly, a few colonies of luminescent S. pneumoniae strain D39LUX or luminescent S. aureus ATCC 12600 (Xen29) from an overnight HBA were emulsified in normal saline and adjusted to A600 nm = 0.10 (equivalent to approx. 5 × 10^7 c.f.u. per ml) and the bacterial suspension further diluted 1:20 in saline. […] The compounds were serially diluted in 100% DMSO at 100× the final desired concentration and 100 μl of appropriate concentrations added to each 10 ml preparation. Duplicate cultures were incubated at 37°C (+ 5% CO2 for S. pneumoniae D39), with samples withdrawn at 0, 0.5, 1, 2, 4, 6, 8 and 24 h, serially diluted 10-fold and plated on HBA overnight at 37°C (+ 5% CO2 for S. pneumoniae D39) for bacterial enumeration.

In a further data set the test system is MCF7. Put plainly: In vitro cytotoxicity, WST-1. It counts as cell-based. The conditions noted are these: Homo sapiens, 24 h exposure, read-out: IC50 values ± SEM.
A further data set deals with Caco-2. Put plainly: In vitro cytotoxicity, WST-1. The data set is classed as cell-based. The conditions noted are these: Homo sapiens, 24 h exposure, read-out: IC50 values ± SEM.
The next data set deals with HEL 299. As to the kind of experiment: In vitro cytotoxicity, WST-1. It counts as cell-based. The conditions noted are these: Homo sapiens, 24 h exposure, read-out: IC50 values ± SEM.
Data set [2] in a line: Pharmacokinetics after IV administration. It counts as in vivo, mouse. The conditions noted are these: for clearance: read-out: Plasma CL; for half-life: read-out: Apparent t½ (converted); for Vd: read-out: Plasma VSS. As for the experimental part: (§2) Mice had access to food and water ad libitum throughout the pre- and post-dose sampling period. The Animal Ethics Committee of the Monash Institute of Pharmaceutical Sciences reviewed and approved all animal PK experiments (approval number MIPS.2013.33). The PK studies were conducted in compliance with the Australian Code of Practice for the Care and Use of Animals for Scientific Purposes (7th Edition 2004). […] For both the IV and IP administration, a maximum of two samples were obtained from each mouse, with samples being taken either via submandibular bleed (approximately 120 μl; conscious sampling) or terminal cardiac puncture (0.6 ml; under inhaled Isoflurane anesthesia). No urine samples were collected as mice were housed in bedded cages during the study. […] Mice were humanely sacrificed by cervical dislocation while under anaesthesia (using gaseous isoflurane) at the end of experiments. Blood was collected directly into polypropylene Eppendorf tubes containing heparin as anti-coagulant, and stabilization cocktail (containing Complete (a protease inhibitor cocktail with EDTA) and potassium fluoride) to minimize the potential for ex vivo degradation of the test compounds in blood/plasma samples. Once collected, blood samples were centrifuged immediately, supernatant plasma was removed, and stored at either -80°C (for the IV exposure) or at -20°C (for the IP exposure) until analysis by liquid chromatography-mass spectrometry (LC-MS). Following protein precipitation with acetonitrile, thawed plasma samples were analyzed by LC-MS (Waters Micromass Quattro Premier coupled to a Waters Acquity UPLC) using positive electrospray ionization operating in MRM mode.

In the next data set the test system is A. baumannii. As to the kind of experiment: MIC alone and checkerboard with EDTA or polymyxin B. The data set is classed as cell-based. The note with it: for MIC: Acinetobacter baumannii. As for the experimental part: as §1
The next data set deals with K. pneumoniae. The description is as above. It counts as cell-based. The conditions noted are these: for MIC of NCL195 in combination with EDTA: with EDTA 10 mM; for MIC: Klebsiella pneumoniae, read-out: MIC, agent alone. As for the experimental part:
as §1

A further data set deals with P. aeruginosa. The description is as above. It counts as cell-based. The note with it: for MIC: Pseudomonas aeruginosa, read-out: MIC, agent alone. The procedure:
as §1

The test system of another data set is E. coli. Described as above. It counts as cell-based. The conditions noted are these: for MIC: Escherichia coli, read-out: MIC, agent alone. The procedure: as §1
Another data set deals with Neisseria meningitidis. Put plainly: Activity against Neisseria meningitidis. The data set is classed as cell-based. The procedure: as §1
Data set [3] in a line: Pharmacokinetics after IP administration. The data set is classed as in vivo, mouse. The note with it: mice, IP 43 mg/kg. As for the experimental part: as §2
[4] abbreviates: male Swiss outbred mice, IV 5 mg/kg, 5 mg/kg.
Where [5] appears, read: male, Swiss (outbred), mouse, plasma, iv, 5 mg/kg, male Swiss outbred mice, read-out: AUC0-inf.
The mark [6] stands for this setting: male, Swiss (outbred), mouse, plasma, iv, 5 mg/kg, male Swiss outbred mice.
Where [7] appears, read: mouse, plasma, male Swiss outbred mice, IV 5 mg/kg.

≈ marks a conversion by molar mass, not a printed value. Entries after “also recorded” stand apart in the source; their conditions may differ. Where two headings read alike, the source gives them in different places. Some results are limits rather than exact numbers.

As for `CCCCCCCCCC(=O)N[C@@H](Cc1c[nH]c2ccccc12)C(=O)N[C@H](CC(N)=O)C(=O)N[C@@H](CC(=O)O)C(=O)N[C@@H]1C(=O)NCC(=O)N[C@@H](CCCN)C(=O)N[C@@H](CC(=O)O)C(=O)N[C@H](C)C(=O)N[C@@H](CC(=O)O)C(=O)NCC(=O)N[C@H](CO)C(=O)N[C@@H]([C@H](C)CC(=O)O)C(=O)N[C@@H](CC(=O)c2ccccc2N)C(=O)O[C@@H]1C` [Daptomycin, daptomycin], the MIC in [1] (ATCC29212, 10% FBS) worked out at 2 µg/mL; in [1] (ATCC29212, absence of FBS), 2 µg/mL. Moreover, the “Resistance (fold MIC) over serial passage” value with S. aureus Xen29 (by day 12 of the serial passage) turned out to be 8 ×MIC. Besides, the “Day of serial passage by which resistance developed” value in the data set with S. aureus Xen29 (daily serial passage) amounted to 5 days.
With `CC1(C)S[C@@H]2[C@H](NC(=O)[C@H](N)c3ccccc3)C(=O)N2[C@H]1C(=O)O` [Ampicillin], the MIC in [1] (ATCC29212, absence of FBS) was 2 µg/mL. The “Time to reduce the population below the limit of detection” value in the data set on S. pneumoniae D39 (4× MIC) worked out at 8 h.
Turning to `Cl.N=C(NN=Cc1ccc(Cl)cc1)NN=Cc1ccc(Cl)cc1` [NCL812, 2,2'-bis[(4-chlorophenyl)methylene] carbonimidic dihydrazide hydrochloride], the MIC in [1] (ATCC29212, 10% FBS) is 32 µg/mL; in data set [1] (ATCC29212, absence of FBS), 4 µg/mL. The values for the IC50 in the data set with MCF7, with Caco-2 and in the data set on HEL 299 were 12 ± 0.2 µg/mL, 8.2 ± 0.1 µg/mL and 4.6 ± 0.1 µg/mL, respectively. Further, the AUC(0-inf) is ~27.9^ a h*μM in [2] (setting [4]) and 27.9 µM·h in [2] (setting [5]). Moreover, the “Plasma CL” value in data set [2] (setting [4]) was ~9.5^ a mL/min/kg. Moreover, in [2] (setting [6]), the clearance is 9.5 mL/min/kg. Moreover, the “Adverse signs after parenteral (IV) administration” value in data set [2] (mice, IV 5 mg/kg, 5 mg/kg) is listed as “adverse neurological signs; also recorded: adverse clinical signs”. In addition, the half-life in [2] (setting [7]) was ~8.2 h. Besides, the Vd in data set [2] (setting [7]) was ~5.9 L/kg.
For the compound `Cc1ccc(/C=N/Nc2cc(N/N=C/c3ccc(C)cc3)nc(N)n2)cc1` [NCL195, 4,6-bis(2-((E)-4-methylbenzylidene)hydrazinyl)pyrimidin-2-amine], the “MIC of NCL195 in combination with EDTA” value in the data set on A. baumannii (A. baumannii ATCC 12457, with EDTA 0.25 mM) amounted to 4 µg/mL; with A. baumannii (A. baumannii ATCC 19606, with EDTA 0.5 mM) it was 2 µg/mL; in the data set on K. pneumoniae (K. pneumoniae ATCC 4352) it was 4 µg/mL; in the data set with K. pneumoniae (K. pneumoniae ATCC 33495), 4 µg/mL; in the data set on P. aeruginosa (P. aeruginosa ATCC 27853, with EDTA 5 mM) it was 2 µg/mL; with P. aeruginosa (P. aeruginosa PA01, with EDTA […]), 0.25 µg/mL. In addition, the “MIC of NCL195 in combination with EDTA” value was found to be 8 µg/mL with E. coli (E. coli ATCC 11229, with EDTA 0.625 mM) and 4 µg/mL in the data set on E. coli (E. coli ATCC 25922, with EDTA 2.5 mM). The “MIC of NCL195 in combination with polymyxin B” value in the data set with A. baumannii (A. baumannii ATCC 12457) is 0.5 µg/mL; in the data set with A. baumannii (A. baumannii ATCC 19606), 0.5 µg/mL; with K. pneumoniae (K. pneumoniae ATCC 4352), 0.5 µg/mL; with K. pneumoniae (K. pneumoniae ATCC 33495), 0.25 µg/mL; in the data set with P. aeruginosa (P. aeruginosa ATCC 27853) it was 1 µg/mL; in the data set on P. aeruginosa (P. aeruginosa PA01), 1 µg/mL. The “MIC of NCL195 in combination with polymyxin B” value in the data set on E. coli (E. coli ATCC 11229) and in the data set on E. coli (E. coli ATCC 25922) was 0.25 µg/mL in each case. Also, the MIC in the data set on A. baumannii (ATCC12457, A. baumannii ATCC 12457, read-out: MIC, agent alone) was > 128 µg/mL; in the data set on A. baumannii (ATCC19606, A. baumannii ATCC 19606, read-out: MIC, agent alone), > 128 µg/mL; with A. baumannii (A. baumannii isolates without strain name (one table line per isolate), read-out: MIC) it was > 128 µg/mL; with K. pneumoniae (ATCC4352, K. pneumoniae ATCC 4352) it was > 128 µg/mL; in the data set on K. pneumoniae (ATCC33495, K. pneumoniae ATCC 33495), > 128 µg/mL; in the data set with P. aeruginosa (ATCC27853, P. aeruginosa ATCC 27853), > 128 µg/mL. In addition, the MIC in the data set on P. aeruginosa (P. aeruginosa PA01) is > 128 µg/mL; with E. coli (ATCC11229, E. coli ATCC 11229) it was > 128 µg/mL; in the data set on E. coli (ATCC25922, E. coli ATCC 25922) it was > 128 µg/mL; in data set [1] (ATCC29212, 10% FBS), 32 µg/mL; in data set [1] (ATCC29212, absence of FBS), 4 µg/mL. The “Activity against Neisseria meningitidis” value in the data set with Neisseria meningitidis was “bactericidal”. For the same compound, the “Time to reduce the population below the limit of detection” value in the data set with S. pneumoniae D39 (2× MIC) was determined as 6 h; with S. pneumoniae D39 (4× MIC), 4 h. For the same compound, the “Adverse reactions after IP administration” value in data set [3] is “No adverse reactions or compound-related side effects were observed”. The Plasma concentration in [3] (between 7.5 and 24 h post-dose) was in the range of 200 to 500 ng/mL; in data set [3] (initial 7.5 h post-dose) it was 3000 to 4000 ng/mL. The IC50 in the data set on MCF7 is 40.1 ± 0.2 µg/mL (≈ 112 µM); in the data set with Caco-2 it was 12.8 ± 0.1 µg/mL (≈ 35.6 µM); with HEL 299 it was 10.9 ± 0.2 µg/mL (≈ 30.3 µM). Also, the AUC(0-inf) in data set [2] (setting [5]) turned out to be 12.5 µM·h. For the same compound, in data set [2] (setting [6]), the clearance stood at 16.3 mL/min/kg. In [2] (setting [7]), the half-life is 2.4 h. In addition, the Vd in [2] (setting [7]) worked out at 2.6 L/kg. Moreover, the “MIC of colonies that grew after 72 h in the presence of NCL195” value in the data set with S. aureus Xen29 (10^5 c.f.u. Xen29 in broth with 1×, 2× and 4× MIC) stood at 1 × MIC. Also, the “Resistance (fold MIC) over serial passage” value in the data set on S. aureus Xen29 (24 daily sequential cultures) is on record as ≤ 1 × MIC.
Consider `C/C(=N\NC(=N)N/N=C(\C)c1ccc(C(C)(C)C)cc1)c1ccc(C(C)(C)C)cc1` [NCL219, (E)-N'-((E)-1-(4-(tert-butyl)phenyl)ethylidene)-2-(1-(4-(tert-butyl)phenyl)ethylidene)hydrazine-1-carboximidhydrazide], for which the MIC in data set [1] (ATCC29212, 10% FBS) stood at 8 µg/mL; in data set [1] (ATCC29212, absence of FBS), 2 µg/mL. Further, the IC50 with MCF7 is > 128 µg/mL; in the data set on Caco-2, 7.5 ± 0.1 µg/mL (≈ 18.5 µM); with HEL 299, 21.2 ± 0.2 µg/mL (≈ 52.3 µM).
